Article PMC9191647 (Neuropharmacology, 2019)
“And” between values parts separate entries of the source, which are not always exact repeats. Equal entries are not always repeated.

Legend:
human 5-HT2A (h5-HT2A) = human 5-HT2A (h5-HT2A) (Homo sapiens, UniProt P28223); assay: Gq-mediated calcium flux in Flp-In T-REx 293 cells; format: cell-based; settings: percent 5-HT maximum response
mouse 5-HT2A (m5-HT2A) = mouse 5-HT2A (m5-HT2A) (Mus musculus, UniProt P35363); assay: Gq-mediated calcium flux in Flp-In T-REx 293 cells; format: cell-based
Chain of mouse 5-HT2A (m5-HT2A) (P35363 whole entry): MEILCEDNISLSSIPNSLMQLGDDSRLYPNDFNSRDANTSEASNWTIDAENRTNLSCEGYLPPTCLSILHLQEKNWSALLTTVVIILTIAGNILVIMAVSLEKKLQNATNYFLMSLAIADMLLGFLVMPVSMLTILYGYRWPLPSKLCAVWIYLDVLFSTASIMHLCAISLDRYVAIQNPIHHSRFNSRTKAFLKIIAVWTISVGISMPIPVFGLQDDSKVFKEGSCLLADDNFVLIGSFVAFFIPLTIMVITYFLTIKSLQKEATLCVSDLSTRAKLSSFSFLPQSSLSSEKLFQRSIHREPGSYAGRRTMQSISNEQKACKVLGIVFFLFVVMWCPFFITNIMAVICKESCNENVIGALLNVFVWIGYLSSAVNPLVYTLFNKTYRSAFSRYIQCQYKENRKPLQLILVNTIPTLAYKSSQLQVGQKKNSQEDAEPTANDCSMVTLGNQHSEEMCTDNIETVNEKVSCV

human 5-HT2B (h5-HT2B) = human 5-HT2B (h5-HT2B) (Homo sapiens, UniProt P41595); assay: Gq-mediated calcium flux in Flp-In T-REx 293 cells; format: cell-based; settings: percent 5-HT maximum response, N.A. = No Activity
Chain of human 5-HT2B (h5-HT2B) (P41595 whole entry): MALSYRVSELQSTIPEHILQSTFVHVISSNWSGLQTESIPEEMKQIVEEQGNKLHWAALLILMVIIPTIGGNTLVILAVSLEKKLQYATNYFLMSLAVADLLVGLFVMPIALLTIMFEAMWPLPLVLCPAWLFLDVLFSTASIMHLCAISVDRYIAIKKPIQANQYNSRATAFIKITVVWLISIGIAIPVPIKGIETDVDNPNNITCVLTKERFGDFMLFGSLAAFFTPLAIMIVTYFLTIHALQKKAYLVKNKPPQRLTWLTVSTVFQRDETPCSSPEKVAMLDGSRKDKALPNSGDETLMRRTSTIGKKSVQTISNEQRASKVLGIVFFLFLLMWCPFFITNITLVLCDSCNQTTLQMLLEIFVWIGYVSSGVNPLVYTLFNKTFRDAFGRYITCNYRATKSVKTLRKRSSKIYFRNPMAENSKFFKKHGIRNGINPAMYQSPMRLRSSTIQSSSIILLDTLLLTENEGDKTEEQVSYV

male C57BL/6J mice [1] = settings: HTR, ref Halberstadt and Geyer (2013), cited from earlier work
human subjects = settings: humans; ref Rothlin (1957); cited from earlier work
[2] = cited from earlier work
5-HT2A = settings: ref Johnson et al., 1994, cited from earlier work; for Ki: human 5-HT2A receptor vs. [^3H] ketanserin
male C57BL/6J mice [3] = assay: Head-twitch response; format: in vivo, mouse; settings: 0.1 mg/kg M100,907 SC pretreatment, then 0.3 mg/kg ALD-52

Chain of human 5-HT2A (h5-HT2A) (P28223 whole entry): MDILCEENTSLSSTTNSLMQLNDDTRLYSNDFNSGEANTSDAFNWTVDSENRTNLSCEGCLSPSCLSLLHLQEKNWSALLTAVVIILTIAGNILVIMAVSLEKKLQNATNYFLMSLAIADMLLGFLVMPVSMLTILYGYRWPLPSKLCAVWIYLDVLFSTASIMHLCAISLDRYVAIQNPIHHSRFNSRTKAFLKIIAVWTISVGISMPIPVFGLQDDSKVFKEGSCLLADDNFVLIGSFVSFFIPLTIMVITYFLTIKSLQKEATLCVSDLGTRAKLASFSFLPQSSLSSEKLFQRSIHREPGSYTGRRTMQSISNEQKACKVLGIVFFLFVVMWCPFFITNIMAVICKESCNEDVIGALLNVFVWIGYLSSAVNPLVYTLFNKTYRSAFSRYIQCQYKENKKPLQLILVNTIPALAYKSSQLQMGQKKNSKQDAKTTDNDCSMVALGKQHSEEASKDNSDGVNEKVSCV

CCN(CC)C(=O)[C@@H]1C=C2c3cccc4[nH]cc(c34)C[C@H]2N(C)C1 [LSD, D-lysergic acid diethylamide, reference compound]
Emax % 5-HT (human 5-HT2A (h5-HT2A)): 94 % 5-HT and 94 ± 1 % 5-HT
EC50 (mouse 5-HT2A (m5-HT2A); Ca^2+ flux): 4.25 nM
pEC50 ± SEM (mouse 5-HT2A (m5-HT2A); Ca^2+ flux): 8.37 ± 0.10
Emax % 5-HT (mouse 5-HT2A (m5-HT2A); percent 5-HT maximum response): 86 ± 3 % 5-HT
Emax % 5-HT (human 5-HT2B (h5-HT2B)): 78 ± 2 % 5-HT
ED50 μg/kg (95% CI) (male C57BL/6J mice [1]; hemitartrate (2:1) salt): 52.9 (38.9–72.0) μg/kg
ED50 nmol/kg (95% CI) (male C57BL/6J mice [1]): 132.8 (97.6–180.7) nmol/kg
active doses (human subjects): 0.5 to 1 µg/kg
peak plasma level of LSD ([2]; humans, intravenous 2 μg/kg LSD, ref Aghajanian and Bing (1964)): 9.5 ng/mL
LSD in plasma ([2]; participants who had ingested 200 μg, ref Dolder et al., 2016): 4.5 ng/mL

CN1C[C@H](C(=O)NC2CCCCC2)C[C@@H]2c3cccc4[nH]cc(c34)C[C@H]21 [LY193525]
Ki (5-HT2A): 0.73 nM

COc1cccc([C@H](O)C2CCN(CCc3ccc(F)cc3)CC2)c1OC [M100,907, reference compound]
HTR induced by ALD-52 after M100,907 pretreatment (male C57BL/6J mice [3]): blocked

CC(C)n1cc2c3c(cccc31)[C@H]1C[C@@H](C(=O)NC3CCCCC3)CN(C)[C@@H]1C2 [amersergide]
Ki (5-HT2A): 16.2 nM
fold lower affinity than LY193525 (5-HT2A; human 5-HT2A receptor): ~ 20 fold
